In PubChem BioAssay AID248 (DTP/NCI, 2004):
Where “and” joins values, the source holds several entries; their conditions need not be identical. Identical values can stand only once. Inconclusive results and toxic doses are left out.

Tested on: L1210 leukemia ip in BDF1 mice, survival T/C
Assay: NCI In Vivo Anticancer Drug Screen. Data for tumor model L1210 Leukemia (intraperitoneal) in B6D2F1 (BDF1) mice
Settings: endpoint: mean survival time, higher = longer survival
Summary of the method: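 Transplanted-tumor mice were given test agent; controls received vehicle only. Survival readings from the two groups were divided (treated over control).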

[1] = dose: 100.0 mg/kg/injection, schedule: Q01DX001 (ip), vehicle: saline
[2] = dose: 100.0 mg/kg/injection, schedule: Q04DX003 (ip), vehicle: Klucel (hydroxypropylcellulose) (HPC)
[3] = dose: 200.0 mg/kg/injection, schedule: Q04DX003 (ip), vehicle: Klucel (hydroxypropylcellulose) (HPC)
[4] = dose: 400.0 mg/kg/injection, schedule: Q04DX003 (ip), vehicle: Klucel (hydroxypropylcellulose) (HPC)
[5] = dose: 50.0 mg/kg/injection, schedule: Q01DX009 (ip), vehicle: Klucel (hydroxypropylcellulose) (HPC)
[6] = dose: 100.0 mg/kg/injection, schedule: Q01DX009 (ip), vehicle: Klucel (hydroxypropylcellulose) (HPC)

Cc1csc[n+]1Cc1ccc([N+](=O)[O-])cc1
T/C (dose: 5.0 mg/kg/injection, schedule: Q01DX001 (ip), vehicle: saline): 100 % of control
T/C (dose: 10.0 mg/kg/injection, schedule: Q01DX001 (ip), vehicle: saline): 102 % of control
T/C (dose: 20.0 mg/kg/injection, schedule: Q01DX001 (ip), vehicle: saline): 102 % of control
T/C (dose: 40.0 mg/kg/injection, schedule: Q01DX001 (ip), vehicle: saline): 103 % of control
T/C (dose: 80.0 mg/kg/injection, schedule: Q01DX001 (ip), vehicle: saline): 100 % of control
T/C [1]: 98 % of control

CC(=S)NC(=O)Nc1cccc2ccccc12
T/C (dose: 100.0 mg/kg/injection, schedule: Q01DX001 (ip), vehicle: Klucel (hydroxypropylcellulose) (HPC)): 88 % of control
T/C (dose: 200.0 mg/kg/injection, schedule: Q01DX001 (ip), vehicle: Klucel (hydroxypropylcellulose) (HPC)): 91 % of control

Cc1ccc2ccccc2c1CC(=O)NN
T/C [2]: 102 % of control
T/C [3]: 104 % of control
T/C [4]: 104 % of control

NC(=O)NC1CC1(c1ccccc1)c1ccccc1 (configuration not stated)
T/C (dose: 42.0 mg/kg/injection, schedule: Q01DX009 (ip), vehicle: other): 105 % of control
T/C (dose: 72.0 mg/kg/injection, schedule: Q01DX009 (ip), vehicle: other): 111 % of control
T/C (dose: 120.0 mg/kg/injection, schedule: Q01DX009 (ip), vehicle: other): 105 % of control
T/C (dose: 200.0 mg/kg/injection, schedule: Q01DX009 (ip), vehicle: other): 93 % of control

O=[N+]([O-])c1cc(/C=N\Nc2ccccn2)ccc1Cl
T/C [2]: 112 % of control
T/C [3]: 101 % of control
T/C [4]: 101 % of control

CCOC(=O)c1c2c(=O)n(C)c(=O)n(C)c2nc2c1c(=O)n(C)c(=O)n2C
T/C [5]: 93 % of control
T/C [6]: 93 % of control
T/C (dose: 200.0 mg/kg/injection, schedule: Q01DX009 (ip), vehicle: Klucel (hydroxypropylcellulose) (HPC)): 86 % of control

OCC(F)(F)C(F)(F)C(F)(F)CO
T/C (dose: 100.0 mg/kg/injection, schedule: Q01DX009 (ip), vehicle: saline): 87 % of control
T/C (dose: 200.0 mg/kg/injection, schedule: Q01DX009 (ip), vehicle: saline): 90 % of control
T/C (dose: 400.0 mg/kg/injection, schedule: Q01DX009 (ip), vehicle: saline): 100 % of control

Sc1ccccc1.[Pb]
T/C (dose: 25.0 mg/kg/injection, schedule: Q01DX009 (ip), vehicle: Klucel (hydroxypropylcellulose) (HPC)): 98 % of control
T/C [5]: 101 % of control
T/C [6]: 92 % of control and 87 % of control

CN1CSC(=S)N(C)C1
T/C (dose: 25.0 mg/kg/injection, schedule: Q04DX003 (ip), vehicle: Klucel (hydroxypropylcellulose) (HPC)): 95 % of control
T/C (dose: 50.0 mg/kg/injection, schedule: Q04DX003 (ip), vehicle: Klucel (hydroxypropylcellulose) (HPC)): 95 % of control
T/C [2]: 95 % of control and 101 % of control

[Co+3].[NH-]CC(=O)[O-].[NH-]CCN(CC[NH-])CC[NH-].[O-][Cl+3]([O-])([O-])O
T/C (dose: 50.0 mg/kg/injection, schedule: Q01DX001 (ip), vehicle: saline): 103 % of control
T/C [1]: 100 % of control
T/C (dose: 200.0 mg/kg/injection, schedule: Q01DX001 (ip), vehicle: saline): 103 % of control
T/C (dose: 400.0 mg/kg/injection, schedule: Q01DX001 (ip), vehicle: saline): 105 % of control

CN(Cc1cnc2nc(N)nc(N)c2n1)c1ccc(C(=O)NC(CCC(=O)O)C(=O)O)cc1[N+](=O)[O-] (configuration not stated)
T/C (dose: 2.5 mg/kg/injection, schedule: Q01DX009 (ip), vehicle: sodium bicarbonate): 155 % of control
T/C (dose: 5.0 mg/kg/injection, schedule: Q01DX009 (ip), vehicle: sodium bicarbonate): 112 % of control
T/C (dose: 10.0 mg/kg/injection, schedule: Q01DX009 (ip), vehicle: sodium bicarbonate): 90 % of control
